The source of these data is ChEMBL document CHEMBL3734731 (Medchemcomm, 2015).

Numbered stars: 1 amine (or outer) side, 2 acyl side, 3 side chain; on linkers, the order of the positions; unused ones are H or OH. Square brackets hold non-standard residues; d marks the D form. Peptide text beside a SMILES is read from it. NMeF = CN[C@@H](Cc1ccccc1)C(=O)O; Aad = N[C@@H](CCCC(=O)O)C(=O)O; Oxalyl = O=C(C(=O)[*:2])[*:1] Bounds are passed on as bounds.

Series [1] addresses T1, Neuromedin-K receptor (Homo sapiens, UniProt P29371).
T1 sequence (P29371 whole entry): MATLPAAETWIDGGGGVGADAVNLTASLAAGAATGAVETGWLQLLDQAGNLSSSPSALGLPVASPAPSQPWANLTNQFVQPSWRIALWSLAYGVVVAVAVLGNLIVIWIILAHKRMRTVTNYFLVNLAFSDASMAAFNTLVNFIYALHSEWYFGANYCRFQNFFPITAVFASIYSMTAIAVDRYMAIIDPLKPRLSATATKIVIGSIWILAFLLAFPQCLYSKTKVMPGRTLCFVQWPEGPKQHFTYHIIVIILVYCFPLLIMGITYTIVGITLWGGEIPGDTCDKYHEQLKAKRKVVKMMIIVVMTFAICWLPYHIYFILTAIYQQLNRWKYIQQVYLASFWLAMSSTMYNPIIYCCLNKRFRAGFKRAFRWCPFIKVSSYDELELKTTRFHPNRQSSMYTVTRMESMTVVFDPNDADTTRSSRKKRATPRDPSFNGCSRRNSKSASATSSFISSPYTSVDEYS
Nature of the series: Displacement of ([125I]His3-MePhe7)-NKB from NK3 receptor (unknown origin) expressed in CHO cells by scintillation counter. Type of series: cell-based.

The target in series [2] is T2, Neuromedin-K receptor (Homo sapiens) (UniProt P29371).
T2 sequence (whole entry): T1 sequence (P29371 whole entry)
Nature of the series: Potency index, ratio of IC50 for […] to IC50 for test compound for binding affinity to NK3 receptor (unknown origin).

Series [3] concerns the target Substance-P receptor (Homo sapiens, UniProt P25103). Nature of the series: Displacement of [125I]-BH-SP from NK1 receptor (unknown origin) expressed in CHO cells by scintillation counter. Type of series: cell-based.
For series [4], the target named is T1, Neuromedin-K receptor. Nature of the series: Agonist activity at human NK3 receptor expressed in CHO cells assessed as calcium influx relative to 100 nM senktide. Type of series: functional, cell-based.
In series [5] the target is T3, Substance-K receptor (Homo sapiens, UniProt P21452).
T3 sequence (P21452 whole entry): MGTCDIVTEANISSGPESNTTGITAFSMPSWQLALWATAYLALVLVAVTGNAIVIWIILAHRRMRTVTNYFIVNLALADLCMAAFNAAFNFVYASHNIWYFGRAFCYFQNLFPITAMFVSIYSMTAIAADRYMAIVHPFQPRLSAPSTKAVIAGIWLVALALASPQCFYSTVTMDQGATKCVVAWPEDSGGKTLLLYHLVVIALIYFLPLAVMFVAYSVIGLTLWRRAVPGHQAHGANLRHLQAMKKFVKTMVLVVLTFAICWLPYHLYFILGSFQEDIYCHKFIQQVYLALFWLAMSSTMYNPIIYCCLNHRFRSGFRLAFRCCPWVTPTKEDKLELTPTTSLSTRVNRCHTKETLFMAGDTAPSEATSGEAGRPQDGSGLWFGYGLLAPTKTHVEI
Nature of the series: Displacement of [125I]-NKA from NK2 receptor (unknown origin) expressed in CHO cells by scintillation counter. Type of series: cell-based. On the technique in general: In a radioligand displacement assay an active substance lowers the binding of a labelled ligand.

Series [6] is described as follows: Agonist activity at goat NK3 receptor expressed in CHO cells assessed as calcium influx relative to 100 nM senktide. Type of series: cell-based. The conditions noted are these: Capra hircus.
Series [7] concerns the target T2, Neuromedin-K receptor (Homo sapiens). Nature of the series: Potency index, ratio of EC50 for […] to EC50 for test compound for agonist activity at human NK3 receptor.
Series [8] has as its target T4, Neuromedin-K receptor (Rattus norvegicus, UniProt P16177).
T4 sequence (P16177 whole entry): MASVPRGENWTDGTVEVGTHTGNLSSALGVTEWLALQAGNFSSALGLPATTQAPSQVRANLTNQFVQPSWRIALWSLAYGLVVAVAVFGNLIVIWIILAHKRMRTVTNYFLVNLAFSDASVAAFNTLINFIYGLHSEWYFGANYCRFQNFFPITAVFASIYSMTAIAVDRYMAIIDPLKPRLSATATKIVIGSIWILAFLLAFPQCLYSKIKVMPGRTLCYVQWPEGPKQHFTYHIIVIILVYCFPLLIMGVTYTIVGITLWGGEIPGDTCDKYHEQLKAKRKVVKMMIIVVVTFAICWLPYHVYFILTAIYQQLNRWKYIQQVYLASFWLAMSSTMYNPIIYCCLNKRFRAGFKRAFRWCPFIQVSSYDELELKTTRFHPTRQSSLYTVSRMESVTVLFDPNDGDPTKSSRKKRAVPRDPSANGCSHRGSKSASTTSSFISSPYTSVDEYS
Nature of the series: Agonist activity at rat NK3 receptor expressed in CHO cells assessed as calcium influx relative to 100 nM senktide. Type of series: functional, cell-based.

Series [9] deals with Serum. Nature of the series: Metabolic stability in cattle serum by HPLC analysis. Type of series: ADME, Bos taurus.
Series [10] deals with Serum. Nature of the series: Metabolic stability in rat serum by HPLC analysis. Type of series: ADME.
Series [11] can be described thus: Agonist activity at cattle NK3 receptor expressed in CHO cells assessed as calcium influx relative to 100 nM senktide. Type of series: cell-based.
A short description of series [12]: Metabolic stability in goat serum by HPLC analysis. Type of series: ADME, Capra hircus.
For series [13], the target named is Neprilysin (NEP 24.11) (Homo sapiens, UniProt P08473). Nature of the series: Stability of compound assessed as NEP 24.11 (unknown origin)-mediated drug degradation after 24 hrs by HPLC analysis. Type of series: ADME. Particulars: NEP 24.11 (neprilysin) enzyme.
Series [14] in a line: Induction of periodic burst of multiple-unit activity volleys in OVX goat assessed as time duration of effect at 200 nmol, iv. Type of series: functional, Capra hircus.
Series [15] is described as follows: Induction of periodic burst of multiple-unit activity volleys in OVX goat assessed as number of ligand-induced multiple-unit activity volleys at 200 nmol, iv. Type of series: functional, Capra hircus.

The term IC50 denotes the concentration at which inhibition is half-maximal. Read a low IC50 as higher potency. As a reminder, the EC50 is the midpoint of the concentration-response curve.

Chain of Substance-P receptor (P25103 whole entry): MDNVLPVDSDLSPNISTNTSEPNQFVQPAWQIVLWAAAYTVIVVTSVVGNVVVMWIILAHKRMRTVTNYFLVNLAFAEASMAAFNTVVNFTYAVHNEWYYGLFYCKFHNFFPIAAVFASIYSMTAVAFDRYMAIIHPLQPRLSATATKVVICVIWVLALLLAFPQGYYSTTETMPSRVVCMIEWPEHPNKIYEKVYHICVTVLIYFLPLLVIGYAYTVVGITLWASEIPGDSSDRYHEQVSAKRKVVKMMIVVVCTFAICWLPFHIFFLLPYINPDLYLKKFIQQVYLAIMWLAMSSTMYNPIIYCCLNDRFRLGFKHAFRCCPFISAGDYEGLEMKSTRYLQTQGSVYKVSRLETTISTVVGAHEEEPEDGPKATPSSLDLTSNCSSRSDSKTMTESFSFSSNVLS
Chain of Neprilysin (NEP 24.11) (P08473 whole entry): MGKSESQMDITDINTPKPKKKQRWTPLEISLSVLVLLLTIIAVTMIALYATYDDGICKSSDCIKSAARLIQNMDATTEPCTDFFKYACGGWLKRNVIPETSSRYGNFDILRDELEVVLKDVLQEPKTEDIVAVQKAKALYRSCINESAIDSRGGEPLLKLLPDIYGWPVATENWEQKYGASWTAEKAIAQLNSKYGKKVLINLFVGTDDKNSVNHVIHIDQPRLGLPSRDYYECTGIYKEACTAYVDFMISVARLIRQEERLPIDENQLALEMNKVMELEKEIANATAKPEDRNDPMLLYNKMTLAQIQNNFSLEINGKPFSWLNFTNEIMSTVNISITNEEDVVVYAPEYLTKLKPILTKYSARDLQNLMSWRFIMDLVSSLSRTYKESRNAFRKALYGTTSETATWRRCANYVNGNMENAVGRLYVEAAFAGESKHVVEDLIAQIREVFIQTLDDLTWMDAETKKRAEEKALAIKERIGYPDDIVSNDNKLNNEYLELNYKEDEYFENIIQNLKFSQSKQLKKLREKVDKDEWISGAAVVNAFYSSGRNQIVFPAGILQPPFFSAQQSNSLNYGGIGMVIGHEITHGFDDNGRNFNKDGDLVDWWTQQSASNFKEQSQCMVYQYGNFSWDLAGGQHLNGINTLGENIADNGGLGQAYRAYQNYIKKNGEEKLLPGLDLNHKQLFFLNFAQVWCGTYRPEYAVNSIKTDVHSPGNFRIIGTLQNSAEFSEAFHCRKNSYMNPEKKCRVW

Turning to `CSCC[C@H](NC(=O)[C@H](CC(C)C)NC(=O)CNC(=O)[C@H](Cc1ccccc1)N(C)C(=O)[C@H](Cc1ccccc1)NC(=O)[C@@H](CC(=O)O)NC(=O)C(=O)O)C(N)=O`, the IC50 is 3.5 nM in [1], more than 10000 nM in series [3] and more than 10000 nM in series [5]. In addition, in series [2], the Ratio IC50 stood at 10. In series [4], the EC50 was determined as 0.022 nM.

In the case of `CSCC[C@H](NC(=O)[C@H](CC(C)C)NC(=O)CNC(=O)[C@H](Cc1ccccc1)N(C)C(=O)[C@H](Cc1ccccc1)NC(=O)[C@H](CCC(=O)O)NC(=O)C(=O)O)C(N)=O`, the results for the IC50 in [1], in series [3] and in [5] were 0.43 nM, more than 10000 nM and more than 10000 nM, respectively. Besides, the EC50 in series [6] turned out to be 0.012 nM; in series [8], 0.013 nM; in series [4], 0.0091 nM; in series [11] it was 0.169 nM. The Ratio EC50 in series [7] came out at 7. Moreover, the Stability result in [9], in series [10] and in series [12] was “Stable” in each case. For the same compound, in series [13], the metabolised at 24 h was more than 70%.

In the case of `CSCC[C@H](NC(=O)[C@H](CC(C)C)NC(=O)CNC(=O)[C@H](Cc1ccccc1)N(C)C(=O)[C@H](Cc1ccccc1)NC(=O)[C@H](CCC(=O)O)NC(=O)[C@@H](CC(=O)O)NC(C)=O)C(N)=O`, the results for the IC50 in series [1], in series [3] and in [5] were 13 nM, more than 10000 nM and more than 10000 nM, respectively. In [2], the Ratio IC50 was 3. For the same compound, the Ratio EC50 in series [7] turned out to be 2. Also, the half-maximal effective concentration (EC50) in [4] worked out at 0.012 nM.

In the case of `CSCC[C@H](NC(=O)[C@H](CC(C)C)NC(=O)CNC(=O)[C@H](Cc1ccccc1)N(C)C(=O)[C@H](Cc1ccccc1)NC(=O)[C@H](CCCC(=O)O)NC(=O)C(=O)O)C(N)=O` (Oxalyl-[Aad]F[NMeF]GLM-NH2), the IC50 in [1] was 1.4 nM; in series [3] it was more than 10000 nM; in [5], more than 10000 nM. For the same compound, the EC50 in series [6] is 0.0093 nM; in series [8], 0.0072 nM; in series [4] it was 0.0074 nM; in series [11], 0.15 nM. Also, the metabolised at 24 h in series [13] is more than 70%.

For the compound `CSCC[C@H](NC(=O)[C@H](CC(C)C)NC(=O)CNC(=O)[C@H](Cc1ccccc1)N(C)C(=O)[C@H](Cc1ccccc1)NC(=O)[C@@H](CCC(=O)O)NC(=O)C(=O)O)C(N)=O`, the Time in series [14] was 50.4 min. Further, the figures for the IC50 in [1], in [3] and in series [5] were 0.51 nM, more than 10000 nM and more than 10000 nM, respectively. In addition, the Activity in [15] was determined as 2.7. Also, the EC50 in [6] came out at 0.0094 nM; in [8], 0.0099 nM; in series [4], 0.014 nM; in series [11], 0.152 nM. In addition, in [7], the Ratio EC50 was 7. Besides, the Stability result in series [9], in series [10] and in series [12] was “Stable” each time.

In the case of `CSCC[C@H](NC(=O)[C@H](CC(C)C)NC(=O)CNC(=O)[C@H](Cc1ccccc1)N(C)C(=O)[C@H](Cc1ccccc1)NC(=O)[C@H](CC(=O)O)NC(=O)CCC(=O)O)C(N)=O` [SENKTIDE], the Time in series [14] stood at 47.2 min. Further, in [15], the Activity stood at 2.6. The figures for the EC50 in series [6] and in series [11] were 0.019 nM and 0.61 nM, respectively. Also, the Stability result in series [9], in series [10] and in series [12] was “Stable” each time. Further, in [5], the concentration for half-maximal inhibition (IC50) is more than 10000 nM.

`CSCC[C@H](NC(=O)[C@H](CC(C)C)NC(=O)CNC(=O)[C@H](Cc1ccccc1)N(C)C(=O)[C@H](Cc1ccccc1)NC(=O)[C@H](CC(=O)O)NC(=O)C(=O)O)C(N)=O`: the IC50 was 3.6 nM in series [1], more than 10000 nM in series [3] and more than 10000 nM in series [5]. Also, the Ratio IC50 in series [2] amounted to 10. Further, the EC50 in [4] was determined as 0.083 nM.

For `CSCC[C@H](NC(=O)[C@H](CC(C)C)NC(=O)CNC(=O)[C@H](Cc1ccccc1)N(C)C(=O)[C@H](Cc1ccccc1)NC(=O)[C@H](CCC(=O)O)NC(=O)[C@H](CC(=O)O)NC(C)=O)C(N)=O`, the IC50 was 7.7 nM in [1], more than 10000 nM in [3] and more than 10000 nM in series [5]. The Ratio IC50 in series [2] is 5. For the same compound, in [7], the Ratio EC50 was 3. Also, in series [4], the EC50 was 0.0081 nM.
